From PMC7957563, “The Novel benzamide Derivative, VKNG-2, Restores the Efficacy of Chemotherapeutic Drugs in Colon Cancer Cell Lines by Inhibiting the ABCG2 Transporter” (International Journal of Molecular Sciences, 2021) come the findings set out here.

This assay concerns the target T1, ABCG2 transporter (Homo sapiens, UniProt Q9UNQ0).
T1 construct: ABCG2-overexpressing cell membranes
T1 sequence (Q9UNQ0 1-655): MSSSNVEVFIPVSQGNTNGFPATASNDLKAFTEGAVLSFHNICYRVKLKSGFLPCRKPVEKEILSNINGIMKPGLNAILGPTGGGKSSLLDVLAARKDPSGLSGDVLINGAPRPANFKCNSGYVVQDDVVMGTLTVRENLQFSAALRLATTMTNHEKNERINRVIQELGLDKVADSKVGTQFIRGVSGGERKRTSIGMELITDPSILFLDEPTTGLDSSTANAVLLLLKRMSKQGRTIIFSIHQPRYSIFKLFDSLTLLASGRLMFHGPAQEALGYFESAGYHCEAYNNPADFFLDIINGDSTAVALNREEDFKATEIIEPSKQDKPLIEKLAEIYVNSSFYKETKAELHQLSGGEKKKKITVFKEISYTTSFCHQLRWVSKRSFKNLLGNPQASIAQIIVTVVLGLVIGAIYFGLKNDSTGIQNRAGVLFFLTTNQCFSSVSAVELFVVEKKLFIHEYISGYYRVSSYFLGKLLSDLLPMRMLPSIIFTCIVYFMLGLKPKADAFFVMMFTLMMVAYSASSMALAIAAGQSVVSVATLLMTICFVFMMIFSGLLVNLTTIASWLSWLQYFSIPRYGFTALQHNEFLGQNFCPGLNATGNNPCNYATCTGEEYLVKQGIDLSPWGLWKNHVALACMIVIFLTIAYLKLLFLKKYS
Kind of assay: vanadate-sensitive ATPase stimulation in ABCG2-overexpressing membranes; [3H]-mitoxantrone efflux inhibition in S1-M1-80 cells. It is filed as biochemical.

As a reminder, the EC50 is the midpoint of the concentration-response curve. On to `CCCc1ccc(NC(=O)c2ccccc2NC(=O)Nc2cccc([N+](=O)[O-])c2)cc1` [VKNG-2, 2-(3-(3-Nitrophenyl)ureido)-N-(4-propylphenyl)benzamide], for which the EC50 is 2.3 µM.
